# Data: PMC10698032, “A monoacylglycerol lipase inhibitor showing therapeutic efficacy in mice without central side effects or dependence” (Nature Communications, 2023)
# What was measured:
# [1] = molecular target: T1, MAGL (monoacylglycerol lipase) (Homo sapiens, UniProt Q99685, K36A/L169S/L176S); experiment: X-ray co-crystal structure (crystal soaking), […] Å; format: binding
# T1 construct: gene MGLL; tag-free hMAGL (K36A, L169S, L176S), His6-TEV tag cleaved
# [2] = molecular target: T2, hormone-sensitive lipase (HSL) (Mus musculus, UniProt P54310); experiment: MS chemical proteomics on mouse tissues; gel-based competitive ABPP on recombinant mouse HSL; format: cell-based
# T2 construct: gene Lipe; full-length, C-terminal FLAG-tag, expressed in HEK293T; endogenous in mouse tissue proteomes
# 5-HT transporter (h) = molecular target: T3, 5-HT transporter (h) (Homo sapiens, UniProt P31645); experiment: biochemical; set-up: CEREP off-target panel, radioligand binding, inhibition of control specific binding; conditions: read-out: % Inhibition of Control Specific Binding, Mean
# T3 construct: gene SLC6A4
# [3] = molecular target: T4, Potassium Channel hERG (human) (Homo sapiens, UniProt Q12809); experiment: in vitro; set-up: CEREP off-target panel, radioligand binding, inhibition of control specific binding; conditions: read-out: % Inhibition of Control Specific Binding, Mean
# T4 construct: gene KCNH2
# Text: (§1) Mass spectrometry (MS)-based chemical proteomics experiments emulated these findings (Fig. 3d).
# dopamine transporter(h) = molecular target: T5, dopamine transporter(h) (Homo sapiens, UniProt Q01959); experiment: biochemical; set-up: CEREP off-target panel, radioligand binding, inhibition of control specific binding; conditions: read-out: % Inhibition of Control Specific Binding, Mean
# T5 construct: gene SLC6A3
# Text: as §1
# [4] = molecular target: T6, norepinephrine transporter(h) (Homo sapiens, UniProt P23975); experiment: biochemical; set-up: CEREP off-target panel, radioligand binding, inhibition of control specific binding; conditions: read-out: % Inhibition of Control Specific Binding, Mean
# T6 construct: gene SLC6A2
# Text: as §1
# [5] = molecular target: T7, 5-HT3(h) (antagonist radioligand) (Homo sapiens, UniProt P46098); experiment: biochemical; set-up: CEREP off-target panel, radioligand binding, inhibition of control specific binding; conditions: read-out: % Inhibition of Control Specific Binding, Mean
# T7 construct: gene HTR3A; antagonist radioligand
# [6] = molecular target: T8, CCK1 (CCKA) (h) (agonist radioligand) (Homo sapiens, UniProt P32238); experiment: biochemical; set-up: CEREP off-target panel, radioligand binding, inhibition of control specific binding; conditions: read-out: % Inhibition of Control Specific Binding, Mean
# T8 construct: gene CCKAR; agonist radioligand
# [7] = molecular target: T9, D1(h) (antagonist radioligand) (Homo sapiens, UniProt P21728); experiment: biochemical; set-up: CEREP off-target panel, radioligand binding, inhibition of control specific binding; conditions: read-out: % Inhibition of Control Specific Binding, Mean
# T9 construct: gene DRD1; antagonist radioligand
# [8] = molecular target: T10, D2S(h) (agonist radioligand) (Homo sapiens, UniProt P14416); experiment: biochemical; set-up: CEREP off-target panel, radioligand binding, inhibition of control specific binding; conditions: read-out: % Inhibition of Control Specific Binding, Mean
# T10 construct: gene DRD2; short isoform (D2S), agonist radioligand
# [9] = molecular target: T11, H1(h) (antagonist radioligand) (Homo sapiens, UniProt P35367); experiment: biochemical; set-up: CEREP off-target panel, radioligand binding, inhibition of control specific binding; conditions: read-out: % Inhibition of Control Specific Binding, Mean
# T11 construct: gene HRH1; antagonist radioligand
# [10] = molecular target: T12, M2 (h) (antagonist radioligand) (Homo sapiens, UniProt P08172); experiment: biochemical; set-up: CEREP off-target panel, radioligand binding, inhibition of control specific binding; conditions: read-out: % Inhibition of Control Specific Binding, Mean
# T12 construct: gene CHRM2; antagonist radioligand
# [11] = molecular target: T13, V1a(h) (agonist radioligand) (Homo sapiens, UniProt P37288); experiment: biochemical; set-up: CEREP off-target panel, radioligand binding, inhibition of control specific binding; conditions: read-out: % Inhibition of Control Specific Binding, Mean
# T13 construct: gene AVPR1A; agonist radioligand
# [12] = molecular target: T14, β1(h) (agonist radioligand) (Homo sapiens, UniProt P08588); experiment: biochemical; set-up: CEREP off-target panel, radioligand binding, inhibition of control specific binding; conditions: read-out: % Inhibition of Control Specific Binding, Mean
# T14 construct: gene ADRB1; agonist radioligand
# [13] = molecular target: T15, μ (MOP) (h) (agonist radioligand) (Homo sapiens, UniProt P35372); experiment: biochemical; set-up: CEREP off-target panel, radioligand binding, inhibition of control specific binding; conditions: read-out: % Inhibition of Control Specific Binding, Mean
# T15 construct: gene OPRM1; agonist radioligand
# COX1(h) = molecular target: T16, COX1(h) (Homo sapiens, UniProt P23219); experiment: biochemical; set-up: CEREP off-target panel, enzyme inhibition; conditions: read-out: % Inhibition, Mean (enzymes)
# T16 construct: gene PTGS1
# COX2(h) = molecular target: T17, COX2(h) (Homo sapiens, UniProt P35354); experiment: biochemical; set-up: CEREP off-target panel, enzyme inhibition; conditions: read-out: % Inhibition, Mean (enzymes)
# T17 construct: gene PTGS2
# Lck kinase (h) = Lck kinase (h) (Homo sapiens, UniProt P06239); experiment: biochemical; set-up: CEREP off-target panel, enzyme inhibition; conditions: read-out: % Inhibition, Mean (enzymes)
# PDE3A (h) = PDE3A (h) (Homo sapiens, UniProt Q14432); experiment: biochemical; set-up: CEREP off-target panel, enzyme inhibition; conditions: read-out: % Inhibition, Mean (enzymes)
# PDE4D2 (h) = molecular target: T18, PDE4D2 (h) (Homo sapiens, UniProt Q08499); experiment: biochemical; set-up: CEREP off-target panel, enzyme inhibition; conditions: read-out: % Inhibition, Mean (enzymes)
# T18 construct: gene PDE4D; isoform PDE4D2
# acetylcholinesterase (h) = molecular target: T19, acetylcholinesterase (h) (Homo sapiens, UniProt P22303); experiment: biochemical; set-up: CEREP off-target panel, enzyme inhibition; conditions: read-out: % Inhibition, Mean (enzymes)
# T19 construct: gene ACHE
# [14] = molecular target: T20, MAGL (monoacylglycerol lipase) (Mus musculus, UniProt O35678); experiment: gel-based competitive ABPP (FP-TAMRA, MB064) in mouse brain membrane proteome; format: biochemical; set-up: gene Mgll; endogenous, mouse brain proteome
# T20 sequence (O35678 1-303): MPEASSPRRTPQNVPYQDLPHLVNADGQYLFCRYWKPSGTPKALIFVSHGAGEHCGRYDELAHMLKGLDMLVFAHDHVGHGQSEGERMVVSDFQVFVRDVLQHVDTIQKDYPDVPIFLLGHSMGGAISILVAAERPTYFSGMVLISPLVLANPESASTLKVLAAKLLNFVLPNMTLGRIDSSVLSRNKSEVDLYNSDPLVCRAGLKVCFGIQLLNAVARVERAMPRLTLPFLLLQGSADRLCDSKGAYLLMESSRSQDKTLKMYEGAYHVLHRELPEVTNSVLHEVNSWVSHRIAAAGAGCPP
# T6 sequence (P23975 whole entry): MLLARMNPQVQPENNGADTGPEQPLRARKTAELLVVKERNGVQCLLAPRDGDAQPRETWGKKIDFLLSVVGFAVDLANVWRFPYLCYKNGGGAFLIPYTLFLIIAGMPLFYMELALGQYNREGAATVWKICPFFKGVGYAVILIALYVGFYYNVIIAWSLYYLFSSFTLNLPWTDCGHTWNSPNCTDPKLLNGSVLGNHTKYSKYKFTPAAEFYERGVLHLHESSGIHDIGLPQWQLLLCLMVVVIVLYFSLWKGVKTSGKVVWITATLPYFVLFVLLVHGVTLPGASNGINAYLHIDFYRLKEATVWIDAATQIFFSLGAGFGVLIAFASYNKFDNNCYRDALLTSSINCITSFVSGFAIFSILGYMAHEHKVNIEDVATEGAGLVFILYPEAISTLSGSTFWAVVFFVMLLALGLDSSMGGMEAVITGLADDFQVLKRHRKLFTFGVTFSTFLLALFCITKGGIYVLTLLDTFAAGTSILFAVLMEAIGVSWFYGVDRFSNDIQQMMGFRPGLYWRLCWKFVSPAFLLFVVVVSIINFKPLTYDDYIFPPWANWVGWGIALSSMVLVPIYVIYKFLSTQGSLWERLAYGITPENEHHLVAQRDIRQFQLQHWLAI
# T2 sequence (P54310 whole entry): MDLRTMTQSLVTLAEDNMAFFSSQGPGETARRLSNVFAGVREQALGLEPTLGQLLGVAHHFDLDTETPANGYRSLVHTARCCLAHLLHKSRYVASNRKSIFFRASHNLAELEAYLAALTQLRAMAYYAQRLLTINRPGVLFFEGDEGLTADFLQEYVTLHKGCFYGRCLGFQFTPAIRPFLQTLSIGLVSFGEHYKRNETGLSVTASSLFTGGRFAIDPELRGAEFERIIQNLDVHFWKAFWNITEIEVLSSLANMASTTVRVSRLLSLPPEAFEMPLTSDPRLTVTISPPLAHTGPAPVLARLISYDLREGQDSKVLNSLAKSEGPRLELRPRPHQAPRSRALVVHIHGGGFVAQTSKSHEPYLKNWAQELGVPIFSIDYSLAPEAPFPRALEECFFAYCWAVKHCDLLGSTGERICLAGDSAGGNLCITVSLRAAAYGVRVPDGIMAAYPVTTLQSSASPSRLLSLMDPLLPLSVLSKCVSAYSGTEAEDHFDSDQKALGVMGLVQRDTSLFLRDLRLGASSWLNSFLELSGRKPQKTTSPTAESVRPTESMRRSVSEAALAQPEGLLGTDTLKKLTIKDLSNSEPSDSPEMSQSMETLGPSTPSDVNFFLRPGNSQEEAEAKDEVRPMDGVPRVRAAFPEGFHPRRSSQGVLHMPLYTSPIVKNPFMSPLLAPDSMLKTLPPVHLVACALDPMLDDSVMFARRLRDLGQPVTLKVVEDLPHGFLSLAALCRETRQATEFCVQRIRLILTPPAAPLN
# T16 sequence (P23219 whole entry): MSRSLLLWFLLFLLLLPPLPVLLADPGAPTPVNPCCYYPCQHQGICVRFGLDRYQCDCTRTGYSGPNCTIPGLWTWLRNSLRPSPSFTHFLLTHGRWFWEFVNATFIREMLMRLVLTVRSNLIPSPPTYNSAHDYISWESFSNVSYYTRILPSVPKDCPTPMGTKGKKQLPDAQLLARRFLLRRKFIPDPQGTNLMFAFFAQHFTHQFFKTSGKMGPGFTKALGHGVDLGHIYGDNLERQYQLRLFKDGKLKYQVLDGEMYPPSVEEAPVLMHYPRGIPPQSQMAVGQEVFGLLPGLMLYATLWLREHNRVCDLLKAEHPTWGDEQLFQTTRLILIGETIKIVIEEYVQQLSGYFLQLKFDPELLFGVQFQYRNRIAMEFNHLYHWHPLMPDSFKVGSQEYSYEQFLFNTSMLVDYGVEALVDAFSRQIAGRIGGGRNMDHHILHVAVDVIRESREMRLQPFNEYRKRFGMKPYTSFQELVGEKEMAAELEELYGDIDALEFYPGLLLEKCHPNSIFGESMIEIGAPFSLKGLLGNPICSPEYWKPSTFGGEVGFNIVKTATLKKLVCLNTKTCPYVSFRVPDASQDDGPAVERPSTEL
# T19 sequence (P22303 whole entry): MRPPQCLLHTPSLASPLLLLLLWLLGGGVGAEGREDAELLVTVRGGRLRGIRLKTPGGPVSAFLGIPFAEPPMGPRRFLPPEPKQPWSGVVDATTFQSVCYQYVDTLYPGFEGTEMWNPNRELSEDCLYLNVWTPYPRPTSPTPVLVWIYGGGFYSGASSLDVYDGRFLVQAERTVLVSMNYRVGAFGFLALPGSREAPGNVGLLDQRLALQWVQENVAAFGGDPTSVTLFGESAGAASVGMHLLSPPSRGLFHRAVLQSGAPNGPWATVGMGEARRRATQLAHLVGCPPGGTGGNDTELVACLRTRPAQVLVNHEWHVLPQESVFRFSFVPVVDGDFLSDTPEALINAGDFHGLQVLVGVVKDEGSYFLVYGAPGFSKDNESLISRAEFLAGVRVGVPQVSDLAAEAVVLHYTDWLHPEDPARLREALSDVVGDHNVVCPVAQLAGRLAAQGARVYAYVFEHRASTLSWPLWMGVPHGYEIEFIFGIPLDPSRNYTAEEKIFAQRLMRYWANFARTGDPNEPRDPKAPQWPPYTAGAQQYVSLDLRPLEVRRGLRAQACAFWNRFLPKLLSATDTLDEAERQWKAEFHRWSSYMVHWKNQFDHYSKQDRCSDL
# T1 sequence (Q99685 whole entry K36A/L169S/L176S): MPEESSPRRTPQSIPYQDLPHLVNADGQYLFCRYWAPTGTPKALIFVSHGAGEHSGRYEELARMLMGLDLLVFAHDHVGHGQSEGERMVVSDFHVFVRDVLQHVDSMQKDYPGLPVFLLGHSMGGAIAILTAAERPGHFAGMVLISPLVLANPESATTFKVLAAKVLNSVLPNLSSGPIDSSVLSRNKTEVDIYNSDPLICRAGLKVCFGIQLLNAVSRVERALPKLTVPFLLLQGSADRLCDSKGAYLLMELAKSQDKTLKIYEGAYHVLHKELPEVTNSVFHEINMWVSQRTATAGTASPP
# T14 sequence (P08588 whole entry): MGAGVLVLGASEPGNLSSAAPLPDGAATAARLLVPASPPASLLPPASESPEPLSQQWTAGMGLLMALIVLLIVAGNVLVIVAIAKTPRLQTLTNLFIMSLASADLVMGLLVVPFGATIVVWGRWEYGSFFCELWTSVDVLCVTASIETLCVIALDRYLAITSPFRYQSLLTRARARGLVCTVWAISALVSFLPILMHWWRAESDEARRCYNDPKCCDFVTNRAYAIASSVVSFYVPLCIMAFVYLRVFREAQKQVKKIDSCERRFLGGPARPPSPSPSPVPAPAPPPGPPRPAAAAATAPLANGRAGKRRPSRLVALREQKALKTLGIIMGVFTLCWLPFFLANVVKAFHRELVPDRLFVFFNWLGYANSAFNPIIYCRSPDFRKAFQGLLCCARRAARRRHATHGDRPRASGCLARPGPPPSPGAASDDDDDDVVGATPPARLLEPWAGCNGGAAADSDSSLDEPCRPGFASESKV
# T9 sequence (P21728 whole entry): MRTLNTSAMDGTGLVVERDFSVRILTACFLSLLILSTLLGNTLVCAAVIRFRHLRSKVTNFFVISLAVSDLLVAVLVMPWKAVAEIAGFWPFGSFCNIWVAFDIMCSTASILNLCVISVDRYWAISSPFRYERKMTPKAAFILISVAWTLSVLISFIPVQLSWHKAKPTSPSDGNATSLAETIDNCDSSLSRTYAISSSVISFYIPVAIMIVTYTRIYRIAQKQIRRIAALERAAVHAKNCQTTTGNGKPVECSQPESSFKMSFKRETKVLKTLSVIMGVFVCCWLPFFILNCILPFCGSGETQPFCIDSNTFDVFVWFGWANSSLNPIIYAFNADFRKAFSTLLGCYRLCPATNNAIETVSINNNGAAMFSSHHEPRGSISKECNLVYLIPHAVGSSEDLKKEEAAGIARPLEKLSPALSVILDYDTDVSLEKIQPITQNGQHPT
# T4 sequence (Q12809 whole entry): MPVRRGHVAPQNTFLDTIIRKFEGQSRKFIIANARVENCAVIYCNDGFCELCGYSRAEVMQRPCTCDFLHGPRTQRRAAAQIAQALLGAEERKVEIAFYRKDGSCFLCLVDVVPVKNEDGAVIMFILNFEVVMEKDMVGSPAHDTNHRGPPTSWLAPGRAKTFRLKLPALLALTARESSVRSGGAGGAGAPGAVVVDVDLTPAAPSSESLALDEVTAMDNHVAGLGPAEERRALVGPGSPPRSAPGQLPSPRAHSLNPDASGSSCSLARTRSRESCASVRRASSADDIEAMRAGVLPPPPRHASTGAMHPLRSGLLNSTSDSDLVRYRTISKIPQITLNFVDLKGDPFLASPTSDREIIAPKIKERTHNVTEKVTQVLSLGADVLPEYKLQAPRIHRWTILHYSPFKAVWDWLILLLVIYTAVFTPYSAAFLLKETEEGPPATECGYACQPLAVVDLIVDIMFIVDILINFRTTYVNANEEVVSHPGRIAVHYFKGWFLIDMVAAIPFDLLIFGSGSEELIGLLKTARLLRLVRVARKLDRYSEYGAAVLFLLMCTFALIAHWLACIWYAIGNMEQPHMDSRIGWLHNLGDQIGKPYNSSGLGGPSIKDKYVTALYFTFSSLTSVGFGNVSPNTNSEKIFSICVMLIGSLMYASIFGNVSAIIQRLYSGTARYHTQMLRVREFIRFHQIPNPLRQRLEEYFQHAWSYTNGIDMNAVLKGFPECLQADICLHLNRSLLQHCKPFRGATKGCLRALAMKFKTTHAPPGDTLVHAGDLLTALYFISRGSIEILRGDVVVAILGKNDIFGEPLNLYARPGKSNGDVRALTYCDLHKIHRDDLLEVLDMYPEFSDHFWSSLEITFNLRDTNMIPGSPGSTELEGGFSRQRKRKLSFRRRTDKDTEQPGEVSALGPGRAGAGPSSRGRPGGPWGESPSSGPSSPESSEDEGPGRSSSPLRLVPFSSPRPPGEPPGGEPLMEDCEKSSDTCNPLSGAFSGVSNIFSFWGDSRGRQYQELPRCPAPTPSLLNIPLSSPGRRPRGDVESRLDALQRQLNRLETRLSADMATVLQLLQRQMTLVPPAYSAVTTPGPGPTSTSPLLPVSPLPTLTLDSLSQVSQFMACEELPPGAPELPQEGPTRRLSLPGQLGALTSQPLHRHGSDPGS
compound,measurement,setting,value
"CCC(F)(F)C(=O)C[S+]([O-])c1ccc(C(=O)N2CCN(c3cccc(Cl)c3)[C@@H](C)[C@@H]2C)cc1Cl (mixture of isomers) [compound 3, LEI-515]","X-ray co-crystal structure (crystal soaking), 1.55 Å",[1],LEI-515 was covalently attached to the catalytic Ser122 residue through its electrophilic carbonyl group as a deprotonated hemiketal
same,MS chemical proteomics on mouse tissues; gel-based competitive ABPP on recombina,[2],"hormone-sensitive lipase (HSL) was identified as main off-target in lung, liver, and brain"
same,inhibition at 10 µM,5-HT transporter (h),4.2%
same,inhibition at 10 µM,[3],5.8%
same,inhibition at 10 µM,dopamine transporter(h),45.2%
same,inhibition at 10 µM,[4],25.3%
same,inhibition at 10 µM,[5],-8.1%
same,inhibition at 10 µM,[6],19.5%
same,inhibition at 10 µM,[7],6.2%
same,inhibition at 10 µM,[8],2.2%
same,inhibition at 10 µM,[9],8.1%
same,inhibition at 10 µM,[10],-4.2%
same,inhibition at 10 µM,[11],9.9%
same,inhibition at 10 µM,[12],6.6%
same,inhibition at 10 µM,[13],20.4%
same,inhibition at 10 µM,COX1(h),5.4%
same,inhibition at 10 µM,COX2(h),9.5%
same,inhibition at 10 µM,Lck kinase (h),-5.3%
same,inhibition at 10 µM,PDE3A (h),-27.2%
same,inhibition at 10 µM,PDE4D2 (h),-16.6%
same,inhibition at 10 µM,acetylcholinesterase (h),4.9%
same,IC50,[14],25 nM
